Measurements: ChEMBL document CHEMBL4680214, “Fluorinated derivatives of 2-phenyl-3-hydroxy-4(1H)-quinolinone as tubulin polymerization inhibitors” (Eur J Med Chem, 2020)

What was measured:
CCRF-CEM [1] = assay: Cell cycle arrest in human CCRF-CEM cells assessed as accumulation at G2/M phase at IC50 measured after 24 hrs by propidium iodide staining based flow cytometry (reference value: 22.6%); format: functional
CCRF-CEM [2] = assay: Cell cycle arrest in human CCRF-CEM cells assessed as BrdU incorporation at IC50 measured after 24 hrs by propidium iodide/immunostaining based flow cytometry (reference value: 60.0%); format: functional
HCT-116 [3] = assay: Cell cycle arrest in human HCT-116 cells assessed as accumulation at sub-G1 phase at 5 times IC50 measured after 24 hrs by propidium iodide staining based flow cytometry (reference value: 1.6%); format: functional
Sus scrofa = species: Sus scrofa; assay: Inhibition of porcine brain tubulin polymerization assessed as Vmax of polymerization at 10 umol/L measured at 60 secs interval for 30 mins by turbidometric method; conditions: dose 10.0 µmol/L
CCRF-CEM [4] = assay: Cell cycle arrest in human CCRF-CEM cells assessed as accumulation at S phase at 5 times IC50 measured after 24 hrs by propidium iodide staining based flow cytometry (reference value: 42.2%); format: functional
CCRF-CEM [5] = assay: Cytotoxicity against human daunorubicine-resistant CCRF-CEM cells incubated for 72 hrs by MTS assay; format: functional, cell-based
CCRF-CEM [6] = assay: Cell cycle arrest in human CCRF-CEM cells assessed as phosphorylation of histone H3 at Ser10 at 5 times IC50 measured after 24 hrs by propidium iodide staining based flow cytometry (reference value: 2.0%); format: functional
CCRF-CEM [7] = assay: Cytotoxicity against human CCRF-CEM cells incubated for 72 hrs by MTS assay; format: functional, cell-based
CCRF-CEM [8] = assay: Cell cycle arrest in human CCRF-CEM cells assessed as accumulation at S phase at IC50 measured after 24 hrs by propidium iodide staining based flow cytometry (reference value: 42.2%); format: functional
HCT-116 [9] = assay: Cell cycle arrest in human HCT-116 cells assessed as accumulation at S phase at IC50 measured after 24 hrs by propidium iodide staining based flow cytometry (reference value: 37.7%); format: functional
CCRF-CEM [10] = assay: Cell cycle arrest in human CCRF-CEM cells assessed as polyploid cell population at 2 times IC50 measured after 24 hrs by propidium iodide staining based flow cytometry (reference value: 11.3%); format: functional
HCT-116 [11] = assay: Cell cycle arrest in human HCT-116 cells assessed as BrdU incorporation at IC50 measured after 24 hrs by propidium iodide/immunostaining based flow cytometry (reference value: 48.6%); format: functional

Structure (SMILES): O=c1c(O)c(-c2ccccc2)[nH]c2cc(F)c(Sc3ccccc3)cc12
- Activity (CCRF-CEM [1]): 41.5%
- Activity (CCRF-CEM [2]): 74.2%
- Activity (HCT-116 [3]): 8.2%
- Vmax (milli optical density/minute) (Sus scrofa): 8.3
- Activity (CCRF-CEM [4]): 21.6%
- IC50 (CCRF-CEM [5]): 3.7 µM
- Activity (CCRF-CEM [6]): 4.9%
- IC50 (CCRF-CEM [7]): 3.3 µM
- Activity (CCRF-CEM [8]): 56.7%
- Activity (HCT-116 [9]): 33.5%
- Activity (CCRF-CEM [10]): 16.6%
- Activity (HCT-116 [11]): 42.1%
